The source made the active and inactive calls. No cut-off for these calls is given here.
Columns and labels:
DU-145 [1] = assay: Induction of cell cycle arrest in human DU-145 cells assessed as effect on cyclin B1 expression by Western blot analysis; format: functional, cell-based
HT-29 [2] = assay: Induction of cell cycle arrest in human HT-29 cells assessed as accumulation at G1 phase at IC50 incubated for 48 hrs by RNaeA/propidium iodide based flow cytometry analysis (reference value: 54.39 %); format: functional
HT-29 [3] = assay: Induction of cell cycle arrest in human HT-29 cells assessed as accumulation at S phase at IC50 incubated for 48 hrs by RNaeA/propidium iodide based flow cytometry analysis (reference value: 32.45 %); format: functional
HT-29 [4] = assay: Induction of cell cycle arrest in human HT-29 cells assessed as accumulation at G2 phase at IC50 incubated for 48 hrs by RNaeA/propidium iodide based flow cytometry analysis (reference value: 13..16 %); format: functional
HCT-116 [5] = assay: Induction of apoptosis in human HCT-116 cells assessed as decrease in PARP protein expression by Western blot assay; format: functional, cell-based
HCT-116 [6] = assay: Induction of apoptosis in human HCT-116 cells assessed as decrease in pro-caspase-3 expression by Western blot assay; format: functional, cell-based
HT-29 [7] = assay: Induction of cell cycle arrest at G1 phase in human HT-29 cells assessed as reduction in CDK6 expression by Western blot analysis; format: functional, cell-based
PC-3 [8] = assay: Induction of cell cycle arrest in human PC3 cells assessed as accumulation at sub-G1 phase at IC50 incubated for 48 hrs by RNaeA/propidium iodide based flow cytometry analysis (reference value: 0 %); format: functional
HT-29 [9] = assay: Induction of cell cycle arrest in human HT-29 cells assessed as accumulation at sub-G1 phase at IC50 incubated for 48 hrs by RNaeA/propidium iodide based flow cytometry analysis (reference value: 0.12 %); format: functional
DU-145 [10] = assay: Induction of apoptosis in human DU-145 cells assessed as late apoptotic cells incubated for 48 hrs by annexin-V/FITC and propidium iodide staining based flow cytometry analysis (reference value: 2.56 %); format: functional
HT-29 [11] = assay: Induction of apoptosis in human HT-29 cells assessed as viable cells incubated for 48 hrs by annexin-V/FITC and propidium iodide staining based flow cytometry analysis (reference value: 83.56 %); format: functional
DU-145 [12] = assay: Induction of apoptosis in human DU-145 cells assessed as increase in DNA fragmentation after 48 hrs by ELISA relative to control; format: functional
HCT-116 [13] = assay: Induction of cell cycle arrest in human HCT-116 cells assessed as increase in Cyclin D1 expression by Western blot analysis; format: functional, cell-based
DU-145 [14] = assay: Antiproliferative activity against human DU145 cells assessed as reduction in cell viability incubated for 48 hr by MTT assay; format: functional, cell-based; conditions: DU-145, 48 h
HT-29 [15] = assay: Induction of apoptosis in human HT-29 cells assessed as decrease in PARP protein expression by Western blot assay; format: functional, cell-based
DU-145 [16] = assay: Induction of cell cycle arrest in human DU-145 cells assessed as accumulation at G1 phase at IC50 incubated for 48 hrs by […]/propidium iodide based flow cytometry analysis (reference value: 45.5 %); format: functional
DU-145 [17] = assay: Induction of cell cycle arrest in human DU-145 cells assessed as accumulation at sub-G1 phase at IC50 incubated for 48 hrs by RNaeA/propidium iodide based flow cytometry analysis (reference value: 0 %); format: functional
HCT-116 [18] = assay: Induction of cell cycle arrest in human HCT-116 cells assessed as accumulation at G2 phase at IC50 incubated for 48 hrs by RNaeA/propidium iodide based flow cytometry analysis (reference value: 17.76 %); format: functional
HT-29 [19] = assay: Induction of cell cycle arrest in human HT-29 cells assessed as increase in p21 expression by Western blot analysis; format: functional, cell-based
DU-145 [20] = assay: Induction of cell cycle arrest in human DU-145 cells assessed as accumulation at G2 phase at IC50 incubated for 48 hrs by […]/propidium iodide based flow cytometry analysis (reference value: 16.06 %); format: functional
DU-145 [21] = assay: Induction of apoptosis in human DU-145 cells assessed as decrease in PARP protein expression by Western blot assay; format: functional, cell-based
HCT-116 [22] = assay: Antiproliferative activity against human HCT116 cells assessed as reduction in cell viability incubated for 48 hr by MTT assay; format: functional, cell-based; conditions: HCT-116, 48 h
DU-145 [23] = assay: Induction of apoptosis in human DU-145 cells assessed as viable cells incubated for 48 hrs by annexin-V/FITC and propidium iodide staining based flow cytometry analysis (reference value: 94.13 %); format: functional
DU-145 [24] = assay: Induction of cell cycle arrest in human DU-145 cells assessed as effect on Cdc2 expression by Western blot analysis; format: functional, cell-based
HT-29 [25] = assay: Induction of apoptosis in human HT-29 cells assessed as late apoptotic cells incubated for 48 hrs by annexin-V/FITC and propidium iodide staining based flow cytometry analysis (reference value: 9.52%); format: functional
PC-3 [26] = assay: Induction of cell cycle arrest in human PC3 cells assessed as accumulation at G2 phase at IC50 incubated for 48 hrs by RNaeA/propidium iodide based flow cytometry analysis (reference value: 23.73 %); format: functional
HCT-116 [27] = assay: Induction of cell cycle arrest in human HCT-116 cells assessed as accumulation at sub-G1 phase at IC50 incubated for 48 hrs by RNaeA/propidium iodide based flow cytometry analysis (reference value: 0.67 %); format: functional
PC-3 [28] = assay: Induction of cell cycle arrest in human PC3 cells assessed as accumulation at S phase at IC50 incubated for 48 hrs by RNaeA/propidium iodide based flow cytometry analysis (reference value: 33.66 %); format: functional
HCT-116 [29] = assay: Induction of cell cycle arrest in human HCT-116 cells assessed as accumulation at G1 phase at IC50 incubated for 48 hrs by RNaeA/propidium iodide based flow cytometry analysis (reference value: 51.56 %); format: functional
HT-29 [30] = assay: Induction of cell cycle arrest at G1 phase in human HT-29 cells assessed as reduction in Cyclin E2 expression by Western blot analysis; format: functional, cell-based
PC-3 [31] = assay: Induction of apoptosis in human PC-3 cells assessed as increase in caspase-3 level by Western blot assay; format: functional, cell-based
HT-29 [32] = assay: Induction of apoptosis in human HT-29 cells assessed as necrotic cells incubated for 48 hrs by annexin-V/FITC and propidium iodide staining based flow cytometry analysis (reference value: 3.52%); format: functional
HT-29 [33] = assay: Induction of apoptosis in human HT-29 cells assessed as increase in caspase-3 level by Western blot assay; format: functional, cell-based
PC-3 [34] = assay: Induction of cell cycle arrest in human PC-3 cells assessed as decrease in Cdc2 expression by Western blot analysis; format: functional, cell-based
PC-3 [35] = assay: Induction of apoptosis in human PC-3 cells assessed as viable cells incubated for 48 hrs by annexin-V/FITC and propidium iodide staining based flow cytometry analysis (reference value: 92.95 %); format: functional
PC-3 [36] = assay: Induction of apoptosis in human PC-3 cells assessed as decrease in pro-caspase-3 expression by Western blot assay; format: functional, cell-based
HCT-116 [37] = assay: Induction of cell cycle arrest in human HCT-116 cells assessed as increase in Cyclin E2 expression by Western blot analysis; format: functional, cell-based
PC-3 [38] = assay: Induction of apoptosis in human PC-3 cells assessed as increase in DNA fragmentation after 48 hrs by ELISA relative to control; format: functional
HCT-116 [39] = assay: Induction of cell cycle arrest in human HCT-116 cells assessed as reduction in CDK6 expression by Western blot analysis; format: functional, cell-based

**Q.** How did the Activity (DU-145 [1]) turn out when `COc1cc(C(=O)/C=C/c2ccc(OCCCNCCCNCCCCN)cc2)cc(OC)c1OC` was run?
**A.** The Activity was “inactive”.

**Q.** What about the Activity (HT-29 [2]) of the same molecule?
**A.** Its Activity is 60.65%.

**Q.** And the Activity (HT-29 [3])?
**A.** The Activity was 26.03%.

**Q.** And the Activity (HT-29 [4])?
**A.** Its Activity is 13.32%.

**Q.** What about the Activity (HCT-116 [5]) of the same molecule?
**A.** Its Activity is “Active”.

**Q.** What about the Activity (HCT-116 [6]) of the same molecule?
**A.** The Activity was “Active”.

**Q.** And the Activity (HT-29 [7])?
**A.** Its Activity is “Active”.

**Q.** What about the Activity (PC-3 [8]) of the same molecule?
**A.** Its Activity is 26.99%.

**Q.** And the Activity (HT-29 [9])?
**A.** The Activity was 7.07%.

**Q.** And the Activity (DU-145 [10])?
**A.** Its Activity is 8.74%.

**Q.** And the Activity (HT-29 [11])?
**A.** The Activity was 56.67%.

**Q.** What about the “fold change (FC)” value (DU-145 [12]) of the same molecule?
**A.** The value was 4.88.

**Q.** What about the Activity (HCT-116 [13]) of the same molecule?
**A.** The Activity was “Active”.

**Q.** And the IC50 (DU-145 [14])?
**A.** The IC50 was 8.86 µM.

**Q.** What about the Activity (HT-29 [15]) of the same molecule?
**A.** Its Activity is “Active”.

**Q.** What about the Activity (DU-145 [16]) of the same molecule?
**A.** The Activity was 28.11%.

**Q.** And the Activity (DU-145 [17])?
**A.** The Activity was 9.28%.

**Q.** And the Activity (HCT-116 [18])?
**A.** Its Activity is 19.93%.

**Q.** And the Activity (HT-29 [19])?
**A.** The Activity was “Active”.

**Q.** What about the Activity (DU-145 [20]) of the same molecule?
**A.** The Activity was 34.55%.

**Q.** What about the Activity (DU-145 [21]) of the same molecule?
**A.** Its Activity is “Active”.

**Q.** What about the IC50 (HCT-116 [22]) of the same molecule?
**A.** Its IC50 is 8.13 µM.

**Q.** And the Activity (DU-145 [23])?
**A.** The Activity was 38.96%.

**Q.** And the Activity (DU-145 [24])?
**A.** Its Activity is “inactive”.

**Q.** And the Activity (HT-29 [25])?
**A.** Its Activity is 31.39%.

**Q.** And the Activity (PC-3 [26])?
**A.** Its Activity is 58.17%.

**Q.** What about the Activity (HCT-116 [27]) of the same molecule?
**A.** Its Activity is 24.17%.

**Q.** What about the Activity (PC-3 [28]) of the same molecule?
**A.** Its Activity is 22.17%.

**Q.** What about the Activity (HCT-116 [29]) of the same molecule?
**A.** The Activity was 65.67%.

**Q.** And the Activity (HT-29 [30])?
**A.** Its Activity is “Active”.

**Q.** What about the Activity (PC-3 [31]) of the same molecule?
**A.** Its Activity is “Active”.

**Q.** What about the Activity (HT-29 [32]) of the same molecule?
**A.** The Activity was 0.6%.

**Q.** What about the Activity (HT-29 [33]) of the same molecule?
**A.** Its Activity is “Active”.

**Q.** What about the Activity (PC-3 [34]) of the same molecule?
**A.** Its Activity is “Active”.

**Q.** And the Activity (PC-3 [35])?
**A.** Its Activity is 50.47%.

**Q.** And the Activity (PC-3 [36])?
**A.** Its Activity is “Active”.

**Q.** What about the Activity (HCT-116 [37]) of the same molecule?
**A.** The Activity was “Active”.

**Q.** And the “fold change (FC)” value (PC-3 [38])?
**A.** The value was 6.53.

**Q.** What about the Activity (HCT-116 [39]) of the same molecule?
**A.** The Activity was “Active”.

Reference: ChEMBL document CHEMBL4825690, “Synthesis and biological evaluation of chalcone-polyamine conjugates as novel vectorized agents in colorectal and prostate cancer chemotherapy” (Eur J Med Chem, 2021)
